Patent publication US3985887A, “3-Substituted-4-hydroxyphenyl-2-piperidylcarbinols as β-adrenergic stimulants” (SmithKline Corporation, priority 1975, dated 1976)
Counter-ions that a name gives are not always drawn.

What was measured:
[1] = tested on: guinea pig tracheal chain preparation; assay: effect on spontaneous tone of guinea pig tracheal chain preparation (β-stimulant direct relaxant effect on airway smooth muscle); type: cell-based; settings: Cavia porcellus, in vitro, read-out: ED50, dose which produces 50% of the maximum possible relaxation
Experimental: (§1) The compounds of this invention are β-adrenergic stimulants which have direct bronchodilator activity with minimal cardiac stimulation. This selective β-stimulant activity is determined by two standard in vitro pharmacological test systems: (1) effect on spontaneous tone of guinea pig tracheal chain preparation as a measure of β-stimulant (direct relaxant) effect on airway smooth muscle, and (2) effect on spontaneously beating right atria of the guinea pig as a measure of β-stimulant effect on cardiac muscle. Compounds that show selective bronchodilating properties, as the compounds of this invention do, are active in test (1) at a dose lower than is required in test (2) thereby resulting in a positive separation ratio. Results of test (1) are reported as the dose which produces 50% of the maximum possible relaxation (ED50). Test (2) results are reported as the dose which produces 25% of the maximum possible increase in atrial contraction rate (ED25).

[2] = tested on: spontaneously beating right atria of the guinea pig; assay: effect on spontaneously beating right atria of the guinea pig (β-stimulant effect on cardiac muscle); type: cell-based; settings: Cavia porcellus, in vitro, read-out: ED25, dose which produces 25% of the maximum possible increase in atrial contraction rate
Experimental: as §1

| Compound | EC50 [1] [µg/mL] | EC25 [2] [µg/mL] |
| --- | --- | --- |
| Nc1cc(C(O)C2CCCCN2)ccc1O (stereo not drawn) [α-(3-amino-4-hydroxyphenyl)-2-piperidylcarbinol hydrobromide] | 0.12 | 4.4 |
| CS(=O)(=O)Cc1cc(C(O)C2CCCCN2)ccc1O (stereo not drawn) [α-(4-hydroxy-3-methanesulfonylmethylphenyl)-2-piperidylcarbinol hydrobromide] | 0.14 | 1.1 |
| NC(=O)Nc1cc(C(O)C2CCCCN2)ccc1O (stereo not drawn) [α-(4-hydroxy-3-ureidophenyl)-2-piperidylcarbinol hydrochloride] | 0.83 | 9.4 |
